Assay results taken from patent publication US20100022491A1, “4-HYDROXY-2-OXO-2,3-DIHYDRO-1,3-BENZOTHIAZOL-7YL COMPOUNDS FOR MODULATION OF B2-ADRENORECEPTOR ACTIVITY” (ASTRAZENECA AB, priority 2006, published 2010).
Structures can show the parent of a compound that is named as a salt.

Key:
[1] = target: T1, recombinant human Dopamine Subtype D2s receptors (Homo sapiens, UniProt P14416); experiment: Dopamine D2 selectivity binding assay ([3H]-spiperone); conditions: inhibition of [3H]-spiperone (0.16 nM) binding; read-out: D2 bind pIC50 (converted)
T1 construct: purchased Perkin Elmer
Protocol: Membranes containing recombinant human Dopamine Subtype D2s receptors were obtained from Perkin Elmer. These were diluted in Assay Buffer (50 mM HEPES, 1 mM EDTA, 120 mM NaCl, 0.1% gelatin, pH 7.4) to provide a final concentration of membranes that gave a clear window between maximum and minimum specific binding.
(§1) Assays were performed in U-bottomed 96-well polypropylene plates. 30 μL [^3H]-spiperone (0.16 nM final concentration) and 30 μL of test compound (10× final concentration) were added to each test well. For each assay plate 8 replicates were obtained for [^3H]-spiperone binding in the presence of 30 μL vehicle (10% (v/v) DMSO in Assay Buffer; defining maximum binding) or 30 μL Haloperidol (10 μM final concentration; defining non-specific binding (NSB)). Membranes were then added to achieve a final volume of 300 μL. The plates were incubated for 2 hours at room temperature and then filtered onto PEI coated GF/B filter plates, pre-soaked for 1 hour in Assay Buffer, using a 96-well plate Tomtec cell harvester. Five washes with 250 μL wash buffer (50 mM HEPES, 1 mM EDTA, 120 mM NaCl, pH 7.4) were performed at 4° C. to remove unbound radioactivity. The plates were dried then sealed from underneath using Packard plate sealers and MicroScint-O (50 μL) was added to each well. The plates were sealed (TopSeal A) and filter-bound radioactivity was measured with a scintillation counter (TopCount, Packard BioScience) using a 3-minute counting protocol.
(§2) Total specific binding (B0) was determined by subtracting the mean NSB from the mean maximum binding. NSB values were also subtracted from values from all other wells. […] Data was fitted to a four parameter logistic equation to determine the compound potency, which was expressed as pIC50 (negative log molar concentration inducing 50% inhibition of [^3H]-spiperone binding).

Adrenergic β2 = target: T2, Adrenergic β2 (Homo sapiens, UniProt P07550); experiment: Adrenergic β2 mediated cAMP production in H292 cells; format: cell-based; conditions: for EC50: H292 cells, cAMP by AlphaScreen, 60 minutes at room temperature, rolipram 300 μM, read-out: β2 pEC50 (converted); for β2 Int Act: Intrinsic Activity as a fraction relative to the maximum activity determined for formoterol
T2 construct: Adherent H292 cells were removed from tissue culture flasks; endogenous in cells; host or cells: H292 cells
Protocol: Adrenergic β2 mediated cAMP production
H292 cells were grown in 225 cm2 flasks incubator at 37° C., 5% CO2 in RPMI medium containing, 10% (v/v) FBS (foetal bovine serum) and 2 mM L-glutamine.
Adherent H292 cells were removed from tissue culture flasks by treatment with Accutase™ cell detachment solution for 15 minutes. Flasks were incubated for 15 minutes in a humidified incubator at 37° C., 5% CO2. Detached cells were re-suspended in RPMI media (containing 10% (v/v) FBS and 2 mM L-glutamine) at 0.05×10^6 cells per mL. 5000 cells in 100 μL were added to each well of a tissue-culture-treated 96-well plate and the cells incubated overnight in a humidified incubator at 37° C., 5% CO2. The culture media was removed and cells were washed twice with 100 μL assay buffer and replaced with 50 μL assay buffer (HBSS solution containing 10 mM HEPES pH7.4 and 5 mM glucose). Cells were rested at room temperature for 20 minutes after which time 25 μL of rolipram (1.2 mM made up in assay buffer containing 2.4% (v/v) dimethylsulphoxide) was added. Cells were incubated with rolipram for 10 minutes after which time test compounds were added and the cells were incubated for 60 minutes at room temperature. The final rolipram concentration in the assay was 300 μM and final vehicle concentration was 1.6% (v/v) dimethylsulphoxide. The reaction was stopped by removing supernatants, washing once with 100 μL assay buffer and replacing with 50 μL lysis buffer. The cell monolayer was frozen at −80° C. for 30 minutes (or overnight).
The concentration of cAMP (cyclic adenosine monophosphate) in the cell lysate was determined using AlphaScreen™ methodology. The frozen cell plate was thawed for 20 minutes on a plate shaker then 10 μL of the cell lysate was transferred to a 96-well white plate. 40 μL of mixed AlphaScreen™ detection beads pre-incubated with biotinylated cAMP, was added to each well and the plate incubated at room temperature for 10 hours in the dark. The AlphaScreen™ signal was measured using an EnVision spectrophotometer (Perkin-Elmer Inc.) with the recommended manufacturer's settings. cAMP concentrations were determined by reference to a calibration curve determined in the same experiment using standard cAMP concentrations. Concentration response curves for agonists were constructed and data was fitted to a four parameter logistic equation to determine both the pEC50 and Intrinsic Activity. Intrinsic Activity was expressed as a fraction relative to the maximum activity determined for formoterol in each experiment.

[2] = target: T3, recombinant human α1D receptor (Homo sapiens, UniProt P25100); experiment: Adrenergic α1D selectivity binding assay ([3H]-prazosin); conditions: inhibition of [3H]-prazosin (0.3 nM) binding, HEK293 membranes; read-out: α1 bind pIC50 (converted)
T3 construct: expressed in transfected cells; host or cells: HEK293
T3 sequence (P25100 1-572): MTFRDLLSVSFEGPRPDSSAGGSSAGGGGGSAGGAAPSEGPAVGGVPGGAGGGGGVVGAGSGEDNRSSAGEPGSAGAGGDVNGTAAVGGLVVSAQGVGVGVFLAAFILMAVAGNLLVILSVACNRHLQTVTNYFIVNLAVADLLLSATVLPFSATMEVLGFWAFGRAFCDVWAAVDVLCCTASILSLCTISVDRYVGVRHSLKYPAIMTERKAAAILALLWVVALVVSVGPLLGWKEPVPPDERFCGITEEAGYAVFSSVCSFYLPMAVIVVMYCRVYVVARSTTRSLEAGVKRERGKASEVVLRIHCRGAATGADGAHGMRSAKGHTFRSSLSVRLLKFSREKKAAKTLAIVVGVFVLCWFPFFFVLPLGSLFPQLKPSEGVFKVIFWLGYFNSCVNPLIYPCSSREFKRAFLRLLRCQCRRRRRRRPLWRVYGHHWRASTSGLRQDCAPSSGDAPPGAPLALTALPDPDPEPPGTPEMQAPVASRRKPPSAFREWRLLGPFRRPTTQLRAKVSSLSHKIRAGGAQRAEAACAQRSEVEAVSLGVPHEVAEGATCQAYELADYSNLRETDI
Protocol: Membranes were prepared from human embryonic kidney 293 (HEK293) cells expressing recombinant human α1D receptor. These were diluted in Assay Buffer (50 mM HEPES, 1 mM EDTA, 0.1% gelatin, pH 7.4) to provide a final concentration of membranes that gave a clear window between maximum and minimum specific binding.
as §1, with “10” for “30”, “[^3H]-prazosin (0.3” for “[^3H]-spiperone (0.16”, “[^3H]-prazosin” for “[^3H]-spiperone”, “BMY7378” for “Haloperidol”, “100” for “300”, “EDTA,” for “EDTA, 120 mM NaCl,”
as §2, with “[^3H]-prazosin” for “[^3H]-spiperone”

T2 sequence (P07550 whole entry): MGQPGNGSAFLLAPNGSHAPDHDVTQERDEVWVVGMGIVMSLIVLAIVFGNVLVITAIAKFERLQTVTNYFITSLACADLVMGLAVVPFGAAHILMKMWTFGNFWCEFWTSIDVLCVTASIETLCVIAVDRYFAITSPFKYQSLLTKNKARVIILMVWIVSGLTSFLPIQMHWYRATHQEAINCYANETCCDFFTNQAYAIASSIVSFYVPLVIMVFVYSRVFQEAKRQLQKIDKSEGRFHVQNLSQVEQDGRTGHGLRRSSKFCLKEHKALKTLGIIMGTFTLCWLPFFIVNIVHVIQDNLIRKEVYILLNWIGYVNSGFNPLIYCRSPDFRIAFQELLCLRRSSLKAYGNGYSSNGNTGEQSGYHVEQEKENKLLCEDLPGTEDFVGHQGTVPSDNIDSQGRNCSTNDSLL
T1 sequence (P14416 1-414 isoform P14416-2): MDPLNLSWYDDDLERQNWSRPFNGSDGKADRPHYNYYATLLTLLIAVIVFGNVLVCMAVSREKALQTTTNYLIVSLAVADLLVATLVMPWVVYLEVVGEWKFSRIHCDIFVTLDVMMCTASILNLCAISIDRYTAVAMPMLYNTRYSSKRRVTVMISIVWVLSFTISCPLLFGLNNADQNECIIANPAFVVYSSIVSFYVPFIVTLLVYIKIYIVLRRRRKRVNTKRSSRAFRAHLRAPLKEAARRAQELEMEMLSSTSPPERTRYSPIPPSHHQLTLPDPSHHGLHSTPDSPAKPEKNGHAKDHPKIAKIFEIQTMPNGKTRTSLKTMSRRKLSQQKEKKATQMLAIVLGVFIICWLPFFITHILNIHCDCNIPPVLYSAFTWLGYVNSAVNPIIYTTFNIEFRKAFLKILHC

Compound | IC50 [1] [nM] | EC50 (Adrenergic β2) [nM] | β2 Int Act (Adrenergic β2) | IC50 [2] [nM]
Cc1cccc(CCNCCC(=O)N(CCNCCc2ccc(O)c3[nH]c(=O)sc23)CC(C)(C)C)c1 [Example 10, N-(2,2-Dimethylpropyl)-N-(2-{[2-(4-hydroxy-2-oxo-2,3-dihydro-1,3-benzothiazol-7-yl)ethyl]amino}ethyl)-N^3-[2-(3-methylphenyl)ethyl]-β-alaninamide bis-trifluoroacetic acid salt] | 794 | 5.01 | 0.69 | 251
C[C@H](CNCCC(=O)N(CCNCCc1ccc(O)c2[nH]c(=O)sc12)C1CCCCC1)c1ccccc1 [Example 18, N-Cyclohexyl-N-(2-{[2-(4-hydroxy-2-oxo-2,3-dihydro-1,3-benzothiazol-7-yl)ethyl]amino}ethyl)-N^3-[(2S)-2-phenylpropyl]-β-alaninamide bis-trifluoroacetic acid salt] | 794 | 3.98 | 0.89 | 200
CC(C)(CNCCC(=O)N(CCNCCc1ccc(O)c2[nH]c(=O)sc12)C1CCCCC1)c1ccccc1 [Example 21, N-Cyclohexyl-N-(2-{[2-(4-hydroxy-2-oxo-2,3-dihydro-1,3-benzothiazol-7-yl)ethyl]amino}ethyl)-N^3-(2-methyl-2-phenylpropyl)-β-alaninamide bis-trifluoroacetic acid salt] | 3980 | 31.6 | 0.85 | 251
O=C(CCNCCC(F)(F)F)N(CCNCCc1ccc(O)c2[nH]c(=O)sc12)C1CCCCC1 [Example 80, N^1-Cyclohexyl-N^1-(2-{[2-(4-hydroxy-2-oxo-2,3-dihydro-1,3-benzothiazol-7-yl)ethyl]amino}ethyl)-N^3-(3,3,3-trifluoropropyl)-β-alaninamide bis-trifluoroacetic acid salt] | 398 | 126 | 0.86 | 1260
CC(C)(CO)CN(CCNCCc1ccc(O)c2[nH]c(=O)sc12)C(=O)CCNCCc1ccc(Cl)cc1 [Example 40, N^3-[2-(4-Chlorophenyl)ethyl]-N-(3-hydroxy-2,2-dimethylpropyl)-N-(2-{[2-(4-hydroxy-2-oxo-2,3-dihydro-1,3-benzothiazol-7-yl)ethyl]amino}ethyl)-β-alaninamide diacetic acid salt] | 794 | 63.1 | 0.64 | 794
CC(C)N(CCNCCc1ccc(O)c2[nH]c(=O)sc12)C(=O)CCNCCc1ccccc1 [Example 1, N-(2-{[2-(4-Hydroxy-2-oxo-2,3-dihydro-1,3-benzothiazol-7-yl)ethyl]amino}ethyl)-N-isopropyl-N^3-(2-phenylethyl)-β-alaninamide bis-trifluoroacetic acid salt] | 398 | 20 | 0.78 | 251
C[C@@H](CNCCC(=O)N(CCNCCc1ccc(O)c2[nH]c(=O)sc12)C1CCCCC1)c1ccccc1 [Example 20, N-Cyclohexyl-N-(2-{[2-(4-hydroxy-2-oxo-2,3-dihydro-1,3-benzothiazol-7-yl)ethyl]amino}ethyl)-N^3-[(2R)-2-phenylpropyl]-β-alaninamide bis-trifluoroacetic acid salt] | 794 | 10 | 0.97 | 251
CC(C)N(CCNCCc1ccc(O)c2[nH]c(=O)sc12)C(=O)CCNCCc1ccc(Cl)cc1 [Example 3, N^3-[2-(4-Chlorophenyl)ethyl]-N-(2-{[2-(4-hydroxy-2-oxo-2,3-dihydro-1,3-benzothiazol-7-yl)ethyl]amino}ethyl)-N-isopropyl-β-alaninamide bis-trifluoroacetic acid salt] | 794 | 39.8 | 0.34 | 251
CC(C)(Cc1ccccc1)NCCC(=O)N(CCNCCc1ccc(O)c2[nH]c(=O)sc12)C1CCCCC1 [Example 19, N-Cyclohexyl-N^3-(1,1-dimethyl-2-phenylethyl)-N-(2-{[2-(4-hydroxy-2-oxo-2,3-dihydro-1,3-benzothiazol-7-yl)ethyl]amino}ethyl)-β-alaninamide bis-trifluoroacetic acid salt] | 1000 | 39.8 | 0.70 | 398
O=C(CCNCCc1ccccn1)N(CCNCCc1ccc(O)c2[nH]c(=O)sc12)C1CCCCC1 [Example 33, N-Cyclohexyl-N-(2-{[2-(4-hydroxy-2-oxo-2,3-dihydro-1,3-benzothiazol-7-yl)ethyl]amino}ethyl)-N^3-(2-pyridin-2-ylethyl)-β-alaninamide bis-trifluoroacetic acid salt] | 631 | 15.8 | 0.78 | 100
